According to PubChem BioAssay AID256 (DTP/NCI, 2004):
Where “and” joins values, the source holds several entries; their conditions need not be identical. Equal values may be shown once. Inconclusive results and toxic doses are left out. How the source made its calls: active means survival T/C of 150% or more; inactive means T/C below 125% in these data.

Tested on: CD2F1 mice, L1210 leukemia ip, survival T/C
Assay: NCI In Vivo Anticancer Drug Screen. Data for tumor model L1210 Leukemia (intraperitoneal) in CD2F1 (CDF1) mice
Conditions: higher = longer survival
Outline: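 Mice carrying a transplanted tumor received test compound or vehicle alone. The value is the measurement in the treated group divided by that in the vehicle-treated control group.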

Measured: T/C

NC(=S)N/N=C/c1ccc(O)cn1
inactive: endpoint: mean survival time, dose: 12.5 mg/kg/injection, schedule: Q01DX009 (ip), vehicle: saline 124 % of control | endpoint: mean survival time, dose: 25.0 mg/kg/injection, schedule: Q01DX009 (oral), vehicle: saline 94 % of control | endpoint: mean survival time, dose: 50.0 mg/kg/injection, schedule: Q01DX009 (oral), vehicle: saline 95 % of control | endpoint: mean survival time, dose: 100.0 mg/kg/injection, schedule: Q01DX009 (ip), vehicle: saline with Tween-80 102 % of control | endpoint: mean survival time, dose: 100.0 mg/kg/injection, schedule: Q01DX009 (oral), vehicle: saline 103 % of control | endpoint: mean survival time, dose: 150.0 mg/kg/injection, schedule: Q01DX009 (ip), vehicle: saline with Tween-80 103 % of control | endpoint: mean survival time, dose: 200.0 mg/kg/injection, schedule: Q01DX009 (ip), vehicle: saline 115 % of control and 110 % of control | endpoint: mean survival time, dose: 200.0 mg/kg/injection, schedule: Q01DX009 (oral), vehicle: saline 102 % of control | endpoint: mean survival time, dose: 400.0 mg/kg/injection, schedule: Q01DX009 (ip), vehicle: saline 88 % of control and 92 % of control | endpoint: mean survival time, dose: 400.0 mg/kg/injection, schedule: Q01DX009 (oral), vehicle: saline 114 % of control | endpoint: median survival time, dose: 45.0 mg/kg/injection, schedule: Q04DX003 (ip), vehicle: suspension in saline 119 % of control | endpoint: median survival time, dose: 80.0 mg/kg/injection, schedule: Q03HX024 (ip), vehicle: saline 119 % of control | endpoint: median survival time, dose: 90.0 mg/kg/injection, schedule: Q04DX003 (ip), vehicle: suspension in saline 122 % of control | endpoint: median survival time, dose: 108.3 mg/kg/injection, schedule: Q03HX008 (ip), vehicle: suspension in saline 94 % of control | endpoint: median survival time, dose: 180.0 mg/kg/injection, schedule: Q03HX024 (ip), vehicle: suspension in saline 110 % of control | endpoint: median survival time, dose: 720.0 mg/kg/injection, schedule: Q04DX003 (ip), vehicle: suspension in saline 122 % of control
active: endpoint: mean survival time, dose: 12.5 mg/kg/injection, schedule: Q03HX024 (ip), vehicle: saline 153 % of control and 163 % of control | endpoint: mean survival time, dose: 18.8 mg/kg/injection, schedule: Q01DX009 (ip), vehicle: saline with Tween-80 162 % of control | endpoint: mean survival time, dose: 25.0 mg/kg/injection, schedule: Q01DX009 (ip), vehicle: saline with Tween-80 155 % of control | endpoint: mean survival time, dose: 25.0 mg/kg/injection, schedule: Q01DX009 (ip), vehicle: saline 150 % of control and 170 % of control | endpoint: mean survival time, dose: 25.0 mg/kg/injection, schedule: Q03HX024 (ip), vehicle: saline 168 % of control and 217 % of control | endpoint: mean survival time, dose: 37.5 mg/kg/injection, schedule: Q01DX009 (ip), vehicle: saline with Tween-80 160 % of control and 166 % of control | endpoint: mean survival time, dose: 50.0 mg/kg/injection, schedule: Q01DX009 (ip), vehicle: saline with Tween-80 183 % of control | endpoint: mean survival time, dose: 50.0 mg/kg/injection, schedule: Q01DX009 (ip), vehicle: saline 151 % of control and 154 % of control | endpoint: mean survival time, dose: 50.0 mg/kg/injection, schedule: Q03HX024 (ip), vehicle: saline 162 % of control and 211 % of control | endpoint: median survival time, dose: 20.0 mg/kg/injection, schedule: Q03HX024 (ip), vehicle: saline 152 % of control and 566 % of control | endpoint: median survival time, dose: 21.8 mg/kg/injection, schedule: Q03HX008 (ip), vehicle: suspension in saline 185 % of control | endpoint: median survival time, dose: 22.5 mg/kg/injection, schedule: Q03HX024 (ip), vehicle: suspension in saline 214 % of control | endpoint: median survival time, dose: 32.6 mg/kg/injection, schedule: Q03HX008 (ip), vehicle: suspension in saline 188 % of control | endpoint: median survival time, dose: 40.0 mg/kg/injection, schedule: Q03HX024 (ip), vehicle: saline 210 % of control and 566 % of control | endpoint: median survival time, dose: 45.0 mg/kg/injection, schedule: Q03HX024 (ip), vehicle: suspension in saline 238 % of control | endpoint: median survival time, dose: 48.6 mg/kg/injection, schedule: Q03HX008 (ip), vehicle: suspension in saline 232 % of control | endpoint: median survival time, dose: 50.0 mg/kg/injection, schedule: Q03HX024 (ip), vehicle: saline 566 % of control | endpoint: median survival time, dose: 60.0 mg/kg/injection, schedule: Q03HX024 (ip), vehicle: saline 566 % of control | endpoint: median survival time, dose: 161.6 mg/kg/injection, schedule: Q04DX003 (ip), vehicle: suspension in saline 152 % of control | endpoint: median survival time, dose: 241.2 mg/kg/injection, schedule: Q04DX003 (ip), vehicle: suspension in saline 156 % of control | endpoint: median survival time, dose: 360.0 mg/kg/injection, schedule: Q04DX003 (ip), vehicle: suspension in saline 176 % of control and 211 % of control | endpoint: median survival time, dose: 537.3 mg/kg/injection, schedule: Q04DX003 (ip), vehicle: suspension in saline 184 % of control
